# Earlier results as cited in US12616655B2, “Topical antibiotic containing pharmaceutical composition for bacterial infections and wound healing” (Vishagan Vanangamudi Sulur, priority 2019, dated 2026).
# Where two headings read alike, the source gives them in different places.
# Assays:
# [1] = at 22° C.
# [2] = through intact human skin
compound,measurement,setting,value
C/C(=C\C(=O)OCCCCCCCCC(=O)O)C[C@@H]1OC[C@H](C[C@@H]2O[C@H]2[C@@H](C)[C@H](C)O)[C@@H](O)[C@H]1O [Mupirocin],solubility,in alcohol at 20° C.,500 µg/mL
same,solubility,in water at 20° C.,1000 µg/mL
same,pKa,[1],5
same,Systemic absorption,[2],minimal
same,inhibition of protein and RNA synthesis,Staphylococcus aureus,strongly inhibit
